# Key:
# [1] = system: corn (maize) cv. Pioneer 33G26; assay: Test G safening on corn by naphthalic anhydride seed treatment, preemergence; format: in vivo, Zea mays
# Source text: This test evaluated the safening of compounds of the invention on corn (maize; Zea mays L.) cv. ‘Pioneer 33G26’ by seed treatment with naphthalic anhydride (1,8-naphthalic anhydride). All corn seed had been first treated with fludioxonil and metaxyl applied at the manufacturer's recommended rate as per the Pioneer 33G26 label. Some of the corn seed were subsequently also treated with naphthalic anhydride as a 1% by weight seed dressing. The corn seed were planted in pots containing pasteurized Sassafras sandy loam soil, and then treatments were applied preemergence the same day. Treatments were applied by spraying the test compounds formulated in a non-phytotoxic solvent mixture, using a flat fan nozzle and a spray volume of 280 L/ha. The treatments were triply replicated and the results subsequently averaged. The pots were placed on a greenhouse bench using a complete randomized block design except for the first replicate, which was unrandomized. The plants were grown in the greenhouse and watered as needed with a dilute nutrient solution containing 200 ppm of N. Illumination was daylight supplemented by artificial sources to maintaining a photoperiod of 16 hours. The temperature was maintained at 28±2° C. during the day and 23±2° C. at night. The plant response was visually rated 25 days after treatment in comparison to untreated controls using a scale of 0 to 100, with 0 representing no effect and 100 representing complete plant death.
# [2] = system: wheat cv. Retical; assay: Test H safening on wheat by naphthalic anhydride seed treatment, pre-/postemergence; format: in vivo, Triticum aestivum; parameters: key to Response of wheat, Without naphthalic anhydride seed treatment: 0 = no effect, 100 = complete plant death, vs untreated control; conditions: preemergence
# Description: This test evaluated the safening of compounds of the invention on wheat (Triticum aestivumL.) cv. ‘Retical’ by seed treatment with naphthalic anhydride. Some of the wheat seed was treated with napthalic anhydride as a 1% by weight seed dressing. The wheat seed were planted in pots containing pasteurized Sassafras sandy loam soil. For postemergence testing the plants were grown 8 days to the 2-leaf stage at time of treatment. Preemergence treatments were applied the same day that the seeds were planted. Treatments were applied by spraying the test compounds formulated in a non-phytotoxic solvent mixture, using a flat fan nozzle and a spray volume of 280 L/ha. The preemergence treatments were triply replicated and the results subsequently averaged. The pots were placed on a growth chamber bench using a complete randomized block design for the preemergence test except for the first replicate, which was unrandomized. The plants were grown in the growth chamber and watered as needed with a dilute nutrient solution containing 200 ppm of N. Illumination was provided by fluorescent lamps giving 200-300 μE/m^2/S of photosynthetically active radiation over a 14-hour photoperiod. The temperature was maintained at 23±2° C. during the day and 17±2° C. at night. The effects of the treatments were rated 25 days after preemergence treatment and 14 days after postemergence treatment. The plant response was visually rated in comparison to untreated controls using a scale of 0 to 100, with 0 representing no effect and 100 representing complete plant death. The results for the compounds tested preemergence are listed in Table H1, and the results for the compounds tested postemergence are listed in Table H2.
# [3] = system: transplanted rice seedlings; assay: Test D flooded paddy test; format: in vivo, Oryza sativa; conditions: 21 days, scale 0 to 100
# Source text: (§1) Three plastic pots (ca. 16-cm diameter) per rate were partially filled with sterilized Tama silt loam soil comprising a 35:50:15 ratio of sand, silt and clay and 2.6% organic matter. Separate plantings for each of the three pots were as follows. Seeds from the U.S. of ducksalad (Heteranthera limosa (Sw.) Willd.), smallflower umbrella sedge (Cyperus difformis L.) and purple redstem (Ammannia coccinea Rottb.), were planted into one 16-cm pot for each rate. Seeds from the U.S. of rice flatsedge (Cyperus iria L.), bearded sprangletop (Leptochloa fascicularis (Lam.) Gray), one stand of 9 or 10 water seeded rice seedlings (Oryza sativa L. cv. ‘Japonica—M202’), and one stand of 6 transplanted rice seedlings (Oryza sativa L. cv. ‘Japonica—M202’) were planted into one 16-cm pot for each rate. Seeds from the U.S. of barnyardgrass (Echinochloa crus-galli (L.) Beauv.), late watergrass (Echinochloa oryzicola Vasinger), early watergrass (Echinochloa oryzoides (Ard.) Fritsch) and junglerice (Echinochloa colona (L.) Link) were planted into one 16-cm pot for each rate. Plantings were sequential so that crop and weed species were at the 2.0 to 2.5-leaf stage at time of treatment.
# (§2) Potted plants were grown in a greenhouse with day/night temperature settings of 29.5/26.7° C., and supplemental balanced lighting was provided to maintain a 16-hour photoperiod. Test pots were maintained in the greenhouse until test completion.
# (§3) At time of treatment, test pots were flooded to 3 cm above the soil surface, treated by application of test compounds directly to the paddy water, and then maintained at that water depth for the duration of the test. Effects of treatments on rice and weeds were visually evaluated by comparison to untreated controls after 21 days. Plant response ratings are reported on a 0 to 100 scale; where 0 is no effect and 100 is complete control. A dash (-) response means no test result.
# [4] = system: water seeded rice seedlings; assay: Test D flooded paddy test; format: in vivo, Oryza sativa; conditions: 21 days, scale 0 to 100
# Source text: as §1, §2, §3
# [5] = system: late watergrass; assay: Test D flooded paddy test; format: in vivo, Echinochloa oryzicola; conditions: 21 days, scale 0 to 100
# Source text: as §1, §2, §3
compound,measurement,setting,value
"CCn1nc(C(C)(C)C)cc1C(=O)Nc1cc(C(=O)N(C)C)ccn1 [Compound 156, 2-[[[3-(1,1-dimethylethyl)-1-ethyl-1H-pyrazol-5-yl]carbonyl]amino]-N,N-dimethyl-4-pyridinecarboxamide]","Response of corn, With 1% naphthalic anhydride seed treatment",[1]; 62 g a.i./ha,0
same,"Response of corn, Without naphthalic anhydride seed treatment",[1]; 62 g a.i./ha,2
same,"Response of corn, With 1% naphthalic anhydride seed treatment",[1]; 125 g a.i./ha,0
same,"Response of corn, Without naphthalic anhydride seed treatment",[1]; 125 g a.i./ha,30
same,"Response of corn, With 1% naphthalic anhydride seed treatment",[1]; 250 g a.i./ha,17
same,"Response of corn, Without naphthalic anhydride seed treatment",[1]; 250 g a.i./ha,65
same,"Response of corn, With 1% naphthalic anhydride seed treatment",[1]; 500 g a.i./ha,17
same,"Response of corn, Without naphthalic anhydride seed treatment",[1]; 500 g a.i./ha,88
same,"Response of wheat, With 1% naphthalic anhydride seed treatment",[2]; 62 g a.i./ha,7
same,"Response of wheat, Without naphthalic anhydride seed treatment",[2]; 62 g a.i./ha,67
same,"Response of wheat, With 1% naphthalic anhydride seed treatment",[2]; 125 g a.i./ha,70
same,"Response of wheat, Without naphthalic anhydride seed treatment",[2]; 125 g a.i./ha,100
same,"Response of wheat, With 1% naphthalic anhydride seed treatment",[2]; 250 g a.i./ha,85
same,"Response of wheat, Without naphthalic anhydride seed treatment",[2]; 250 g a.i./ha,100
same,"Response of wheat, With 1% naphthalic anhydride seed treatment",[2]; 500 g a.i./ha,99
same,"Response of wheat, Without naphthalic anhydride seed treatment",[2]; 500 g a.i./ha,100
CCn1nc(C(C)(C)C)cc1C(=O)Nc1cc(C(=O)NCC2CC2)ccn1 [Compound 155],"Plant response rating, Rice, Transplanted",[3]; 32 g ai/ha,0
same,"Plant response rating, Rice, Transplanted",[3]; 64 g ai/ha,0
same,"Plant response rating, Rice, Transplanted",[3]; 125 g ai/ha,20
same,"Plant response rating, Rice, Transplanted",[3]; 250 g ai/ha,30
same,"Plant response rating, Rice, Transplanted",[3]; 500 g ai/ha,30
same,"Plant response rating, Rice, Water Seeded",[4]; 32 g ai/ha,0
same,"Plant response rating, Rice, Water Seeded",[4]; 64 g ai/ha,0
same,"Plant response rating, Rice, Water Seeded",[4]; 125 g ai/ha,25
same,"Plant response rating, Rice, Water Seeded",[4]; 250 g ai/ha,35
same,"Plant response rating, Rice, Water Seeded",[4]; 500 g ai/ha,40
same,"Plant response rating, Watergrass, Late",[5]; 32 g ai/ha,0
same,"Plant response rating, Watergrass, Late",[5]; 64 g ai/ha,0
same,"Plant response rating, Watergrass, Late",[5]; 125 g ai/ha,20
same,"Plant response rating, Watergrass, Late",[5]; 250 g ai/ha,30
same,"Plant response rating, Watergrass, Late",[5]; 500 g ai/ha,60
